The values below are quoted from earlier work in patent US20120237563A1, “CONTROLLED-RELEASE FORMULATIONS OF […] AND USES THEREOF” (UNIVERSITY OF FLORIDA RESEARCH […]., priority 2009, published 2012).

For this data set the following is noted: clinical studies.

In the case of `COc1ccc(/C=C2\CCCN=C2c2cccnc2)c(OC)c1` [DMXBA, 3-(2,4-dimethoxybenzylidene)-anabaseine], the “Safety of large oral doses” value is “without adverse effects”. Also, the Half-life entry (oral) was “two”.
